The results in this text go back to ChEMBL document CHEMBL1201862, “PubChem BioAssay data set” (2004).

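Briefly, cells in 96-well plates were exposed to five compound concentrations for 48 h, and endpoints were estimated by linear interpolation. GI50 is the concentration that inhibits growth by half.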 Active and inactive are the calls of the source. Cut-off read from the data, not from the text of the source: active = GI50 up to about 1.1 µM and inactive = higher.

Test systems include A498; ACHN; COLO 205; DU-145; HOP-62; HT-29; Hs-578T; KM12; M14; MCF7; MDA-MB-231; MDA-N; Malme-3M; NCI-H226; NCI-H522; NCI/ADR-RES; OVCAR-5; SF-539; SN12C; HCC 2998.
What all share (test): NCI tumour cell line growth inhibition, 48 h

Turning to `Clc1ccccc1NN(Cc1ccncc1)c1ccccc1Cl`, the GI50 in the experiment with A498 was 19.1 µM (inactive); with ACHN, 16.6 µM (inactive); with COLO 205 it was 14.4 µM (inactive); in the experiment with DU-145 it was 17.5 µM (inactive); in the experiment with HOP-62, 15.8 µM (inactive); in the experiment on HT-29 it was 12.6 µM (inactive). The GI50 was 18.2 µM (inactive) in the experiment on Hs-578T; 18 µM (inactive) in the experiment with KM12; 17.7 µM (inactive) with M14; 22.3 µM (inactive) in the experiment on MCF7; 13.6 µM (inactive) with MDA-MB-231; 13.5 µM (inactive) in the experiment with MDA-N. The GI50 in the experiment with Malme-3M was 17.7 µM (inactive); with NCI-H226 it was 21 µM (inactive); in the experiment on NCI-H522, 12.1 µM (inactive); in the experiment with NCI/ADR-RES it was 13.8 µM (inactive); in the experiment with OVCAR-5, 17.5 µM (inactive); in the experiment on SF-539 it was 18.2 µM (inactive). For the same molecule, the GI50 in the experiment with SN12C is 13.6 µM (inactive).

`COc1cc(/C=C/c2ccnc3ccccc23)cc(OC)c1OC`: the GI50 was 4 µM (inactive) with A498; 7.23 µM (inactive) in the experiment on ACHN; 1.88 µM (inactive) with COLO 205; 4.84 µM (inactive) in the experiment on DU-145; 8.47 µM (inactive) in the experiment with HCC 2998; 7.16 µM (inactive) with HOP-62. Moreover, the GI50 is 1.28 µM (inactive) with HT-29; 3.85 µM (inactive) with Hs-578T; 3.23 µM (inactive) with KM12; 3.63 µM (inactive) in the experiment with M14; 5.22 µM (inactive) with MCF7; 2.21 µM (inactive) in the experiment on MDA-MB-231. Moreover, the GI50 was 0.351 µM (active) with MDA-N; 2.98 µM (inactive) with Malme-3M; 5.04 µM (inactive) with NCI-H226; 2.13 µM (inactive) in the experiment on NCI-H522; 2.46 µM (inactive) in the experiment on NCI/ADR-RES; 7.8 µM (inactive) in the experiment with OVCAR-5. The GI50 in the experiment with SF-539 is 3.78 µM (inactive); in the experiment with SN12C, 3.56 µM (inactive).

With `COCOc1ccc(C(=O)Oc2cccc3c2OC(C)(C)O3)c(OCOC)c1`, the GI50 was > 100 µM (inactive) in the experiment with A498; > 100 µM (inactive) in the experiment on ACHN; > 100 µM (inactive) in the experiment with COLO 205; > 100 µM (inactive) with DU-145; 62.7 µM (inactive) in the experiment on HCC 2998; > 100 µM (inactive) in the experiment on HOP-62. Moreover, the GI50 in the experiment with HT-29 is > 100 µM (inactive); with Hs-578T, 31.3 µM (inactive); with KM12, 11.9 µM (inactive); in the experiment with M14, 89.1 µM (inactive); in the experiment on MCF7 it was 33.2 µM (inactive); with MDA-MB-231, 15.7 µM (inactive). Also, the GI50 with MDA-N is > 100 µM (inactive); with NCI-H226, > 100 µM (inactive); in the experiment with NCI/ADR-RES it was > 100 µM (inactive); in the experiment with OVCAR-5, > 100 µM (inactive); in the experiment with SF-539 it was 37.7 µM (inactive); in the experiment on SN12C, > 100 µM (inactive).

For `N=C(N)SC1c2ccccc2-c2cc([N+](=O)[O-])ccc21` (stereo unspecified), the GI50 with A498 was 3.62 µM (inactive); in the experiment with ACHN, 6.53 µM (inactive); in the experiment with COLO 205 it was 2.94 µM (inactive); in the experiment with DU-145, 3.88 µM (inactive); in the experiment on HCC 2998 it was 2.59 µM (inactive); with HOP-62, 6.56 µM (inactive). The GI50 is 3.66 µM (inactive) in the experiment with HT-29; 3.1 µM (inactive) with Hs-578T; 3.23 µM (inactive) in the experiment on KM12; 5.15 µM (inactive) with M14; 3.24 µM (inactive) with MCF7; 6.5 µM (inactive) in the experiment with MDA-MB-231. For the same molecule, the GI50 with MDA-N was 3 µM (inactive); with Malme-3M, 5.19 µM (inactive); with NCI-H226, 7.53 µM (inactive); with NCI-H522, 2.51 µM (inactive); with NCI/ADR-RES it was 3.01 µM (inactive); in the experiment with OVCAR-5, 9.95 µM (inactive). Also, the GI50 with SF-539 was 3.96 µM (inactive); in the experiment with SN12C, 8.51 µM (inactive).

In the case of `Nc1nc(Cl)c(CO)c(NCC2(CO)CCC2)n1`, the GI50 in the experiment with A498, with ACHN, with COLO 205, in the experiment on DU-145, in the experiment on HCC 2998 and in the experiment with HOP-62 was > 100 µM (inactive) throughout. The GI50 was > 100 µM (inactive) with HT-29; > 100 µM (inactive) with Hs-578T; 75.7 µM (inactive) in the experiment with KM12; > 100 µM (inactive) in the experiment on MCF7; > 100 µM (inactive) in the experiment on MDA-MB-231; > 100 µM (inactive) in the experiment with MDA-N. In addition, the GI50 in the experiment on Malme-3M, in the experiment with NCI-H226, in the experiment on NCI-H522, in the experiment on NCI/ADR-RES, in the experiment with OVCAR-5 and in the experiment with SF-539 was > 100 µM (inactive) throughout. Further, the GI50 in the experiment on SN12C is > 100 µM (inactive).

For `C=CCO[C@]1(CC=C)C(=O)C(=O)OC1C1COC(C)(C)O1` (stereo partly specified), the GI50 is > 100 µM (inactive) in the experiment on A498; 16.6 µM (inactive) in the experiment with ACHN; 20.5 µM (inactive) in the experiment on COLO 205; > 100 µM (inactive) with DU-145; > 100 µM (inactive) in the experiment with HCC 2998; > 100 µM (inactive) in the experiment with HOP-62. The GI50 in the experiment on HT-29 is 19.8 µM (inactive); in the experiment on Hs-578T, 74 µM (inactive); in the experiment with KM12, 18.8 µM (inactive); in the experiment on MCF7, 19.1 µM (inactive); in the experiment on MDA-MB-231 it was 41.6 µM (inactive); in the experiment on MDA-N, 36 µM (inactive). For the same molecule, the GI50 is 17.3 µM (inactive) in the experiment with Malme-3M; > 100 µM (inactive) in the experiment with NCI-H226; 21.2 µM (inactive) in the experiment with NCI-H522; 37.4 µM (inactive) with NCI/ADR-RES; > 100 µM (inactive) with OVCAR-5; > 100 µM (inactive) with SF-539. The GI50 with SN12C is 34.4 µM (inactive).

As for `CC(C)[C@H](NC(=O)[C@H](N)Cc1ccc(N(CCCl)CCCl)cc1)C(=O)O`, the GI50 with A498, with ACHN, with COLO 205, in the experiment with DU-145, in the experiment on HCC 2998 and in the experiment on HOP-62 was > 100 µM (inactive) each time. In addition, the GI50 in the experiment with HT-29, with Hs-578T, in the experiment on KM12, in the experiment on M14, with MCF7 and in the experiment with MDA-MB-231 was > 100 µM (inactive) in each case. Further, the GI50 in the experiment with MDA-N, in the experiment on Malme-3M, in the experiment on NCI-H226, in the experiment with NCI-H522, in the experiment with NCI/ADR-RES and in the experiment on OVCAR-5 was > 100 µM (inactive) in each case. For the same molecule, in the experiment on SN12C, the GI50 was > 100 µM (inactive).

Consider `O=[N+]([O-])/C=C/c1cc2ccccc2[nH]1`, for which the GI50 is 19.3 µM (inactive) in the experiment on A498; 17 µM (inactive) in the experiment on ACHN; 17.2 µM (inactive) in the experiment on COLO 205; 15.4 µM (inactive) with DU-145; 16.5 µM (inactive) in the experiment with HOP-62; 15.8 µM (inactive) with HT-29. Further, the GI50 in the experiment on Hs-578T is 22.5 µM (inactive); in the experiment on KM12, 12.2 µM (inactive); with M14, 12.5 µM (inactive); in the experiment on MCF7, 4.03 µM (inactive); in the experiment on MDA-MB-231, 18.2 µM (inactive); in the experiment with MDA-N, 3.24 µM (inactive). The GI50 was 27.5 µM (inactive) in the experiment on Malme-3M; 19.1 µM (inactive) in the experiment on NCI-H226; 9.35 µM (inactive) in the experiment on NCI-H522; 32.1 µM (inactive) with NCI/ADR-RES; 19.5 µM (inactive) with OVCAR-5; 9.84 µM (inactive) with SF-539. Besides, the GI50 with SN12C was 17.7 µM (inactive).

For the molecule `O=[N+]([O-])c1ccc(O)c(/C=N/c2nc(-c3ccccc3)cs2)c1`, the GI50 in the experiment with A498 was > 93.5 µM (inactive); in the experiment with ACHN, 31.4 µM (inactive); in the experiment with COLO 205, 19.6 µM (inactive); in the experiment with DU-145, 30.4 µM (inactive); with HCC 2998, 24.8 µM (inactive); in the experiment on HOP-62, 26.7 µM (inactive). The GI50 in the experiment with HT-29 is 34.2 µM (inactive); in the experiment on Hs-578T it was 25.8 µM (inactive); with KM12, 37.5 µM (inactive); with M14 it was 29.4 µM (inactive); in the experiment on MCF7 it was 26.8 µM (inactive); in the experiment with MDA-MB-231, 33.3 µM (inactive). The GI50 in the experiment on MDA-N was 27.5 µM (inactive); in the experiment on Malme-3M, 24.8 µM (inactive); in the experiment with NCI-H226, 24.7 µM (inactive); with NCI-H522, 19.2 µM (inactive); in the experiment with NCI/ADR-RES, 29.7 µM (inactive); with OVCAR-5, 31.6 µM (inactive). Also, the GI50 in the experiment with SN12C was 34.8 µM (inactive).

Turning to `COc1c2ccoc2c(OC)c2oc(=O)ccc12` [ISOPIMPINELLIN], the GI50 in the experiment on A498, in the experiment on ACHN, in the experiment on COLO 205, in the experiment with DU-145, with HCC 2998 and in the experiment with HOP-62 was > 100 µM (inactive) in each case. Moreover, the GI50 in the experiment with HT-29 is > 100 µM (inactive); in the experiment with Hs-578T it was 62.1 µM (inactive); in the experiment on KM12 it was > 100 µM (inactive); with M14, > 100 µM (inactive); in the experiment with MCF7 it was > 100 µM (inactive); with MDA-MB-231 it was > 100 µM (inactive). Besides, the GI50 in the experiment on MDA-N is > 100 µM (inactive); in the experiment with NCI-H226, 99.1 µM (inactive); with NCI-H522, > 100 µM (inactive); in the experiment on NCI/ADR-RES, > 100 µM (inactive); in the experiment on OVCAR-5, > 100 µM (inactive); in the experiment on SF-539, > 100 µM (inactive). In addition, the GI50 in the experiment on SN12C was > 100 µM (inactive).
